What was measured:
LOUCY = assay: cells; format: functional, cell-based, Homo sapiens; settings: Homo sapiens, LOUCY;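 note: growth inhibition of human LOUCY cells, read out with a cell viability assay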
Description: SANGER: Inhibition of human LOUCY cell growth in a cell viability assay.

MONO-MAC-6 = assay: cells; format: functional, cell-based, Homo sapiens; settings: Homo sapiens, MONO-MAC-6;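 note: cell viability assay measuring growth inhibition of human MONO-MAC-6 cells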
Description: SANGER: Inhibition of human MONO-MAC-6 cell growth in a cell viability assay.

NCI-H1882 = assay: cells; format: functional, cell-based, Homo sapiens; settings: Homo sapiens, NCI-H1882;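 note: growth inhibition of the cell line, determined with a viability assay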
Description: SANGER: Inhibition of human NCI-H1882 cell growth in a cell viability assay.

NCI-H2171 = assay: cells; format: functional, cell-based, Homo sapiens; settings: Homo sapiens, NCI-H2171;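 note: growth inhibition of human NCI-H2171 cells, read out by a cell viability assay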
Description: SANGER: Inhibition of human NCI-H2171 cell growth in a cell viability assay.

NCI-H2196 = assay: cells; format: functional, cell-based, Homo sapiens; settings: Homo sapiens, NCI-H2196;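 note: cell viability assay used as the readout of growth inhibition in NCI-H2196 cells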
Description: SANGER: Inhibition of human NCI-H2196 cell growth in a cell viability assay.

NCI-H748 = assay: cells; format: functional, cell-based, Homo sapiens; settings: Homo sapiens, NCI-H748;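 note: growth inhibition of NCI-H748 cells, measured by a cell viability assay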
Description: SANGER: Inhibition of human NCI-H748 cell growth in a cell viability assay.

OPM-2 = assay: cells; format: functional, cell-based, Homo sapiens; settings: Homo sapiens, OPM-2;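 note: growth of OPM-2 cells measured with a viability assay, IC50 for suppression of proliferation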
Description: SANGER: Inhibition of human OPM-2 cell growth in a cell viability assay.

RL = assay: cells; format: functional, cell-based, Homo sapiens; settings: Homo sapiens, RL
Description: SANGER: Inhibition of human RL cell growth in a cell viability assay.

Raji = assay: cells; format: functional, cell-based, Homo sapiens; settings: Homo sapiens, Raji;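 note: cell viability assay measuring inhibition of Raji cell growth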
Description: SANGER: Inhibition of human Raji cell growth in a cell viability assay.

ST486 = assay: SANGER: Inhibition of human ST486 cell growth in a cell viability assay.; format: functional, cell-based; settings: Homo sapiens, ST486
SUP-T1 = assay: cells; format: functional, cell-based, Homo sapiens; settings: Homo sapiens, SUP-T1;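 note: growth inhibition of human SUP-T1 cells, read out as cell viability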
Description: SANGER: Inhibition of human SUP-T1 cell growth in a cell viability assay.

BC-3 = assay: cells; format: functional, cell-based, Homo sapiens; settings: Homo sapiens, BC-3;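 note: cell viability assay measuring growth inhibition of human BC-3 cells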
Description: SANGER: Inhibition of human BC-3 cell growth in a cell viability assay.

BL-41 = assay: cells; format: functional, cell-based, Homo sapiens; settings: Homo sapiens, BL-41;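 note: growth inhibition of human BL-41 cells, read out with a cell viability assay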
Description: SANGER: Inhibition of human BL-41 cell growth in a cell viability assay.

Capan-2 = assay: cells; format: functional, cell-based, Homo sapiens; settings: Homo sapiens, Capan-2;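 note: Capan-2 cell growth inhibition, read out with a viability assay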
Description: SANGER: Inhibition of human Capan-2 cell growth in a cell viability assay.

ChaGo-K-1 = assay: cells; format: functional, cell-based, Homo sapiens; settings: Homo sapiens, ChaGo-K-1;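 note: growth inhibition of ChaGo-K-1 cells, read out with a cell viability assay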
Description: SANGER: Inhibition of human ChaGo-K-1 cell growth in a cell viability assay.

DoTc2-4510 = assay: cells; format: functional, cell-based, Homo sapiens; settings: Homo sapiens, DoTc2-4510
G-361 = assay: cells; format: functional, cell-based, Homo sapiens; settings: Homo sapiens, G-361
G-401 = assay: cells; format: functional, cell-based, Homo sapiens; settings: Homo sapiens, G-401
Description: SANGER: Inhibition of human G-401 cell growth in a cell viability assay.

GAMG = assay: cells; format: functional, cell-based, Homo sapiens; settings: Homo sapiens, GAMG;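 note: cell growth inhibition measured by a viability assay in the GAMG human cell line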
Description: SANGER: Inhibition of human GAMG cell growth in a cell viability assay.

HCC1937 = assay: cells; format: functional, cell-based, Homo sapiens; settings: Homo sapiens, HCC1937;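 note: growth inhibition measured with a cell viability read-out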
Description: SANGER: Inhibition of human HCC1937 cell growth in a cell viability assay.

HCC1954 = assay: cells; format: functional, cell-based, Homo sapiens; settings: Homo sapiens, HCC1954;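 note: growth inhibition of human HCC1954 cells, read out with a cell viability assay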
Description: SANGER: Inhibition of human HCC1954 cell growth in a cell viability assay.

JEG-3 = assay: cells; format: functional, cell-based, Homo sapiens; settings: Homo sapiens, JEG-3;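 note: growth inhibition of human JEG-3 cells, read out with a cell viability assay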
Description: SANGER: Inhibition of human JEG-3 cell growth in a cell viability assay.

KU-19-19 = assay: cells; format: functional, cell-based, Homo sapiens; settings: Homo sapiens, KU-19-19
Description: SANGER: Inhibition of human KU-19-19 cell growth in a cell viability assay.

KYSE-140 = assay: cells; format: functional, cell-based, Homo sapiens; settings: Homo sapiens, KYSE-140;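 note: cell viability assay measuring growth inhibition in human KYSE-140 cells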
Description: SANGER: Inhibition of human KYSE-140 cell growth in a cell viability assay.

KYSE-410 = assay: cells; format: functional, cell-based, Homo sapiens; settings: Homo sapiens, KYSE-410;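 note: growth inhibition of KYSE-410 cells, measured through a cell viability readout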
Description: SANGER: Inhibition of human KYSE-410 cell growth in a cell viability assay.

MDA-MB-175-VII = assay: cells; format: functional, cell-based, Homo sapiens; settings: Homo sapiens, MDA-MB-175-VII
MDA-MB-361 = assay: cells; format: functional, cell-based, Homo sapiens; settings: Homo sapiens, MDA-MB-361
ME-180 = assay: cells; format: functional, cell-based, Homo sapiens; settings: Homo sapiens, ME-180;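 note: cell viability assay measuring growth inhibition of ME-180 cells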
Description: SANGER: Inhibition of human ME-180 cell growth in a cell viability assay.

MKN-45 = assay: cells; format: functional, cell-based, Homo sapiens; settings: Homo sapiens, MKN-45;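 note: growth inhibition of human MKN-45 cells, measured with a cell viability assay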
Description: SANGER: Inhibition of human MKN45 cell growth in a cell viability assay.

MKN-7 = assay: cells; format: functional, cell-based, Homo sapiens; settings: Homo sapiens, MKN-7;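 note: growth inhibition of MKN-7 cells, read out with a cell viability assay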
Description: SANGER: Inhibition of human MKN7 cell growth in a cell viability assay.

MeWo = assay: cells; format: functional, cell-based, Homo sapiens; settings: Homo sapiens, MeWo;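 note: growth inhibition of MeWo cells, determined by a cell viability readout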
Description: SANGER: Inhibition of human Mewo cell growth in a cell viability assay.

NCI-H2342 = assay: cells; format: functional, cell-based, Homo sapiens; settings: Homo sapiens, NCI-H2342;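 note: growth inhibition of the cancer cell line, determined with a cell viability assay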
Description: SANGER: Inhibition of human NCI-H2342 cell growth in a cell viability assay.

NCI-H520 = assay: cells; format: functional, cell-based, Homo sapiens; settings: Homo sapiens, NCI-H520;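 note: growth inhibition of NCI-H520 cells, measured by a cell viability assay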
Description: SANGER: Inhibition of human NCI-H520 cell growth in a cell viability assay.

NUGC-3 = assay: cells; format: functional, cell-based, Homo sapiens; settings: Homo sapiens, NUGC-3;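 note: growth inhibition of human NUGC-3 cells, read out with a cell viability assay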
Description: SANGER: Inhibition of human NUGC-3 cell growth in a cell viability assay.

PC-3 = assay: cells; format: functional, cell-based, Homo sapiens; settings: Homo sapiens, PC-3;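 note: cell viability assay measuring growth inhibition of PC-3 cells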
Description: SANGER: Inhibition of human PC-3 cell growth in a cell viability assay.

SF-295 = assay: cells; format: functional, cell-based, Homo sapiens; settings: Homo sapiens, SF-295;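 note: growth inhibition of SF-295 cells, read out with a cell viability assay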
Description: SANGER: Inhibition of human SF295 cell growth in a cell viability assay.

SW13 = assay: cells; format: functional, cell-based, Homo sapiens; settings: Homo sapiens, SW13;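 note: IC50 is inhibition of SW13 cell growth, read out with a cell viability assay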
Description: SANGER: Inhibition of human SW13 cell growth in a cell viability assay.

SW837 = assay: cells; format: functional, cell-based, Homo sapiens; settings: Homo sapiens, SW837;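 note: growth inhibition of SW837 cells, determined with a cell viability assay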
Description: SANGER: Inhibition of human SW837 cell growth in a cell viability assay.

T84 = assay: cells; format: functional, cell-based, Homo sapiens; settings: Homo sapiens, T84;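 note: growth inhibition measured with a cell viability readout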
Description: SANGER: Inhibition of human T84 cell growth in a cell viability assay.

786-0 = assay: cells; format: functional, cell-based, Homo sapiens; settings: Homo sapiens
Description: SANGER: Inhibition of human 786-0 cell growth in a cell viability assay.

A204 = assay: cells; format: functional, cell-based, Homo sapiens; settings: Homo sapiens, A204;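 note: growth inhibition of human A204 cells, read out with a cell viability assay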
Description: SANGER: Inhibition of human A204 cell growth in a cell viability assay.

AN3-CA = assay: cells; format: functional, cell-based, Homo sapiens; settings: Homo sapiens, AN3-CA;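 note: growth inhibition of human AN3-CA cells measured by a cell viability assay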
Description: SANGER: Inhibition of human AN3-CA cell growth in a cell viability assay.

BHY = assay: cells; format: functional, cell-based, Homo sapiens; settings: Homo sapiens, BHY;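 note: cell growth inhibition read out by a viability assay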
Description: SANGER: Inhibition of human BHY cell growth in a cell viability assay.

WM-115 = assay: cells; format: functional, cell-based, Homo sapiens; settings: Homo sapiens, WM-115
Description: SANGER: Inhibition of human WM-115 cell growth in a cell viability assay.

COLO-679 = assay: cells; format: functional, cell-based, Homo sapiens; settings: Homo sapiens, COLO-679
Description: SANGER: Inhibition of human COLO-679 cell growth in a cell viability assay.

`COc1cc(N2CCN(C)CC2)ccc1Nc1ncc2c(n1)N(C)c1ccccc1C(=O)N2C` gave an IC50 (LOUCY) of over 8 µM, an IC50 (MONO-MAC-6) of over 8 µM and an IC50 (NCI-H1882) of over 8 µM. It also gave an IC50 (NCI-H2171) of over 8 µM, an IC50 (NCI-H2196) of over 8 µM and an IC50 (NCI-H748) of over 8 µM. The IC50 (OPM-2) was 3.3 µM, the IC50 (RL) was 2.78 µM and the IC50 (Raji) was over 8 µM. The IC50 (ST486) was 3.49 µM, the IC50 (SUP-T1) was 2.23 µM and the IC50 (BC-3) was over 8 µM. The IC50 (BL-41) was 3.65 µM.

In the case of `COc1cc(-c2nn([C@H]3CC[C@H](N4CCN(C(C)=O)CC4)CC3)c3ncnc(N)c23)ccc1NC(=O)c1cc2ccccc2n1C`, the IC50 (LOUCY) is reported as over 5.12 µM, the IC50 (MONO-MAC-6) is reported as over 5.12 µM and the IC50 (NCI-H1882) is reported as over 5.12 µM. For the same compound, the IC50 (NCI-H2171) was over 5.12 µM, the IC50 (NCI-H2196) was over 5.12 µM and the IC50 (NCI-H748) was over 5.12 µM. It also gave an IC50 (OPM-2) of over 5.12 µM, an IC50 (RL) of over 5.12 µM and an IC50 (Raji) of over 5.12 µM. It also gave an IC50 (ST486) of over 5.12 µM, an IC50 (SUP-T1) of over 5.12 µM and an IC50 (BC-3) of over 5.12 µM. The IC50 (BL-41) was 1.69 µM.

For `OCCCNc1cc(-c2ccnc(Nc3cccc(Cl)c3)n2)ccn1`, the IC50 (LOUCY) was 0.0622 µM, the IC50 (MONO-MAC-6) was 0.0859 µM and the IC50 (NCI-H1882) was over 0.256 µM. The IC50 (NCI-H2171) was over 0.256 µM, the IC50 (NCI-H2196) was 0.112 µM and the IC50 (NCI-H748) was 0.0764 µM. For the same compound, the IC50 (OPM-2) was 0.153 µM, the IC50 (RL) was over 0.256 µM and the IC50 (Raji) was 0.0421 µM. It also gave an IC50 (ST486) of 0.0312 µM, an IC50 (SUP-T1) of over 0.256 µM and an IC50 (BC-3) of 0.0766 µM. The IC50 (BL-41) was 0.0336 µM.

For `Cc1ccc(-c2c(C(=O)CCl)n(CCCO)c3ncnc(N)c23)cc1`, the IC50 (LOUCY) was over 4 µM, the IC50 (MONO-MAC-6) was 3.93 µM and the IC50 (NCI-H1882) was over 4 µM. For the same compound, the IC50 (NCI-H2171) was over 4 µM, the IC50 (NCI-H2196) was over 4 µM and the IC50 (NCI-H748) was over 4 µM. It also gave an IC50 (OPM-2) of over 4 µM, an IC50 (RL) of over 4 µM and an IC50 (Raji) of over 4 µM. It also gave an IC50 (ST486) of over 4 µM, an IC50 (SUP-T1) of over 4 µM and an IC50 (BC-3) of over 4 µM. For the same compound, the IC50 (BL-41) was over 4 µM.

`C=C(c1ccc(C(=O)O)cc1)c1cc2c(cc1C)C(C)(C)CCC2(C)C` [BEXAROTENE] gave an IC50 (Capan-2) of over 8 µM, an IC50 (ChaGo-K-1) of over 8 µM and an IC50 (DoTc2-4510) of over 8 µM. It also gave an IC50 (G-361) of over 8 µM, an IC50 (G-401) of over 8 µM and an IC50 (GAMG) of over 8 µM. It also gave an IC50 (HCC1937) of over 8 µM, an IC50 (HCC1954) of over 8 µM and an IC50 (JEG-3) of over 8 µM. The IC50 (KU-19-19) was over 8 µM, the IC50 (KYSE-140) was over 8 µM and the IC50 (KYSE-410) was over 8 µM. It also gave an IC50 (LOUCY) of over 8 µM, an IC50 (MDA-MB-175-VII) of over 8 µM and an IC50 (MDA-MB-361) of over 8 µM. For the same compound, the IC50 (ME-180) was over 8 µM, the IC50 (MKN-45) was over 8 µM and the IC50 (MKN-7) was over 8 µM. The IC50 (MONO-MAC-6) was over 8 µM, the IC50 (MeWo) was over 8 µM and the IC50 (NCI-H1882) was over 8 µM. The IC50 (NCI-H2171) was over 8 µM, the IC50 (NCI-H2196) was over 8 µM and the IC50 (NCI-H2342) was over 8 µM. The IC50 (NCI-H520) was over 8 µM, the IC50 (NCI-H748) was over 8 µM and the IC50 (NUGC-3) was over 8 µM. It also gave an IC50 (OPM-2) of over 8 µM, an IC50 (PC-3) of over 8 µM and an IC50 (RL) of over 8 µM. It also gave an IC50 (Raji) of over 8 µM, an IC50 (SF-295) of 5.17 µM and an IC50 (ST486) of over 8 µM. The IC50 (SUP-T1) was over 8 µM, the IC50 (SW13) was over 8 µM and the IC50 (SW837) was over 8 µM. It also gave an IC50 (T84) of over 8 µM, an IC50 (786-0) of over 8 µM and an IC50 (A204) of over 8 µM. It also gave an IC50 (AN3-CA) of over 8 µM, an IC50 (BC-3) of over 8 µM and an IC50 (BHY) of over 8 µM. It also gave an IC50 (BL-41) of over 8 µM, an IC50 (WM-115) of over 8 µM and an IC50 (COLO-679) of over 8 µM.

For `C#Cc1cccc(Nc2ncnc3cc(OCCOC)c(OCCOC)cc23)c1` [ERLOTINIB], the IC50 (LOUCY) was over 2 µM, the IC50 (MONO-MAC-6) was over 2 µM and the IC50 (NCI-H1882) was over 2 µM. The IC50 (NCI-H2171) was over 2 µM, the IC50 (NCI-H2196) was over 2 µM and the IC50 (NCI-H748) was over 2 µM. It also gave an IC50 (OPM-2) of over 2 µM, an IC50 (RL) of over 2 µM and an IC50 (Raji) of over 2 µM. The IC50 (ST486) was over 2 µM, the IC50 (SUP-T1) was over 2 µM and the IC50 (BC-3) was over 2 µM. The IC50 (BL-41) was over 2 µM.
